In patent publication US20140275277A1, “PHARMACEUTICAL COMPOSITION OF S-KETAMINE HYDROCHLORIDE” (JANSSEN PHARMACEUTICA NV, priority 2013, published 2014):

Assays:
[1] = tested on: environmental isolate Staphylococcus haemolyticus; assay: Microbial challenge test (Example 1); assay type: cell-based; conditions: spike 10^5-10^6 CFU/ml
From the text: A challenge test was initiated to investigate whether the formulation could prevent microorganisms from proliferating. The challenge test consisted of challenging the formulation with a prescribed inoculum of microorganisms. The inoculated formulation was then stored at room temperature and at specified time intervals a sample was withdrawn to count the microorganisms in the sample.

A. brasiliensis = assay: Full AET Challenge Test (Example 2); assay type: cell-based, Aspergillus brasiliensis; conditions: after 28 days of incubation at room temperature; spike 10^5-10^6 CFU/ml
Description: (§1) The formulations listed in Table 3 were additionally subjected to a Full AET challenge, with results for the individual formulations are shown in Tables 5-8, below. Additionally, Table 9 below, provides results for a Full AET challenge of a reference formulation containing 0.00 mg/mL S-ketamine hydrochloride, denatonium benzoate (to mimic the taste of the S-ketamine HCl formulation(s)), and adjusted to pH 5.21 with 1N NaOH.

C. albicans = assay: Full AET Challenge Test (Example 2); assay type: cell-based, Candida albicans; conditions: after 28 days; spike 10^5-10^6 CFU/ml
Description: as §1

P. aeruginosa = assay: Full AET Challenge Test (Example 2); assay type: cell-based, Pseudomonas aeruginosa; conditions: after 28 days; spike 10^5-10^6 CFU/ml
Description: as §1

S. aureus = assay: Full AET Challenge Test (Example 2); assay type: cell-based, Staphylococcus aureus; conditions: after 28 days; spike 10^5-10^6 CFU/ml
Description: as §1

E. coli = assay: Full AET Challenge Test (Example 2); assay type: cell-based, Escherichia coli; conditions: after 28 days; spike 10^5-10^6 CFU/ml
Description: as §1

M. luteus = assay: Full AET Challenge Test (Example 2); assay type: cell-based, Micrococcus Luteus; conditions: after 28 days; spike 10^5-10^6 CFU/ml
Description: as §1

CN[C@]1(c2ccccc2Cl)CCCCC1=O.Cl [S-ketamine hydrochloride, (S)-2-(2-chlorophenyl)-2-(methylamino)cyclohexanone hydrochloride]
Effect on the original spike of Staphylococcus haemolyticus, in words [1]: strong antimicrobial properties
Effect on the original spike of Aspergillus brasiliensis, in words (A. brasiliensis): some inhibitory activity
Effect on the original spike of Candida albicans, in words (C. albicans): strong antimicrobial properties
Effect on the original spike of Pseudomonas aeruginosa, in words (P. aeruginosa): strong antimicrobial properties
Effect on the original spike of Staphylococcus aureus, in words (S. aureus): strong antimicrobial properties
Effect on the original spike of Escherichia coli, in words (E. coli): strong antimicrobial properties
Effect on the original spike of Micrococcus Luteus, in words (M. luteus): strong antimicrobial properties
